ChEMBL document CHEMBL1201862, “PubChem BioAssay data set” (2004)
“And” between values parts separate entries of the source, which are not always exact repeats. Equal values may be shown once.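 The compound was tested at five concentrations on cells cultured in 96-well plates, with a 48-hour exposure period. GI50 is the concentration that inhibits growth by half.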 The source made the active and inactive calls. Cut-off read from the data, not from the text of the source: active = GI50 up to about 1.1 µM and inactive = higher.

How the values were obtained:
Test in all cases: NCI anticancer screen, dose series, 48 h
A498 = tested on: A498
A549 = tested on: A549
COLO 205 = tested on: COLO 205
DU-145 = tested on: DU-145
HOP-62 = tested on: HOP-62
LOX IMVI = tested on: LOX IMVI
MCF7 = tested on: MCF7
NCI-H226 = tested on: NCI-H226
NCI-H460 = tested on: NCI-H460
NCI/ADR-RES = tested on: NCI/ADR-RES
OVCAR-3 = tested on: OVCAR-3
SF-268 = tested on: SF-268
SK-MEL-28 = tested on: SK-MEL-28
SN12C = tested on: SN12C
SNB-19 = tested on: SNB-19
SR = tested on: SR
UACC-257 = tested on: UACC-257
UO-31 = tested on: UO-31
U-251 = tested on: U-251
Hs-578T = tested on: Hs-578T

SMILES | GI50 (A498) | GI50 (A549) | GI50 (COLO 205) | GI50 (DU-145) | GI50 (HOP-62) | GI50 (LOX IMVI) | GI50 (MCF7) | GI50 (NCI-H226) | GI50 (NCI-H460) | GI50 (NCI/ADR-RES) | GI50 (OVCAR-3) | GI50 (SF-268) | GI50 (SK-MEL-28) | GI50 (SN12C) | GI50 (SNB-19) | GI50 (SR) | GI50 (UACC-257) | GI50 (UO-31) | GI50 (U-251) | GI50 (Hs-578T)
CSc1ncnc2c1ncn2CCC(=O)OC(C)(C)C | > 100 µM (inactive) | > 100 µM (inactive) | > 100 µM (inactive) | > 100 µM (inactive) | > 100 µM (inactive) | > 100 µM (inactive) | > 100 µM (inactive) | > 100 µM (inactive) | > 100 µM (inactive) | > 100 µM (inactive) | > 100 µM (inactive) | > 100 µM (inactive) | > 100 µM (inactive) | > 100 µM (inactive) | > 100 µM (inactive) | > 100 µM (inactive) | > 100 µM (inactive) | > 100 µM (inactive) |  | 
CC(=O)NC1C(OCc2ccccc2)OC(COC(=O)CCCCCCCCCCNC(=O)c2cccc3c(=O)c4ccccc4[nH]c23)C(O)C1OC(C)C(=O)NC(C)C(=O)NC(CCC(N)=O)C(N)=O (centres undefined) | 98.6 µM (inactive) | 40.9 µM (inactive) | 85.3 µM (inactive) |  | > 100 µM (inactive) | 49.3 µM (inactive) |  | 38.7 µM (inactive) | 61.5 µM (inactive) |  | 43.8 µM (inactive) | > 100 µM (inactive) | 47.3 µM (inactive) | > 100 µM (inactive) | 47.3 µM (inactive) | 40.1 µM (inactive) | > 100 µM (inactive) | > 100 µM (inactive) | 69.5 µM (inactive) | 
COc1cc([C@@H]2c3cc4c(cc3[C@@H](Nc3ccc(/N=C\c5ccc(C(=O)O[C@@H](C(=O)O[C@H]6C[C@@]7(O)[C@@H](OC(=O)c8ccccc8)[C@@H]8[C@]9(OC(C)=O)CO[C@@H]9C[C@H](O)[C@@]8(C)C(=O)[C@H](OC(C)=O)C(=C6C)C7(C)C)[C@@H](NC(=O)c6ccccc6)c6ccccc6)cc5)cc3)[C@H]3COC(=O)[C@H]23)OCO4)cc(OC)c1O | 0.196 µM (active) | 0.721 µM (active) | 1.39 µM (inactive) | 2.68 µM (inactive) | 2.93 µM (inactive) | 3.49 µM (inactive) | 0.384 µM (active) | 1.57 µM (inactive) | 0.113 µM (active) | > 45.8 µM (inactive) | 15.9 µM (inactive) | 4.34 µM (inactive) | > 38.8 µM (inactive) | 2.88 µM (inactive) | 2.48 µM (inactive) | 0.0102 µM (active) | 28.6 µM (inactive) |  | 3.34 µM (inactive) | 
COC(=O)c1ccc(-c2nc(C#N)c(N)o2)cc1 |  | > 100 µM (inactive) | > 100 µM (inactive) | > 100 µM (inactive) | 67.9 µM (inactive) | > 100 µM (inactive) | > 100 µM (inactive) | > 100 µM (inactive) | > 100 µM (inactive) |  | > 100 µM (inactive) | 37.7 µM (inactive) | > 100 µM (inactive) | > 100 µM (inactive) | 34.7 µM (inactive) | > 100 µM (inactive) | > 100 µM (inactive) | > 100 µM (inactive) | 31.6 µM (inactive) | 32.2 µM (inactive)
COc1ccc(-c2cc(-c3cc(F)c(Cl)cc3Cl)[nH]n2)cc1OC |  | 40.7 µM (inactive) | 19.2 µM (inactive) | 33.1 µM (inactive) | 39.9 µM (inactive) | 18.4 µM (inactive) |  | 20.8 µM (inactive) | 32.1 µM (inactive) | 25.1 µM (inactive) | 15.2 µM (inactive) | 29.2 µM (inactive) | 48.6 µM (inactive) | 22.7 µM (inactive) | 49.4 µM (inactive) | 11.1 µM (inactive) | 32.7 µM (inactive) | 85.3 µM (inactive) | 26.9 µM (inactive) | 43.7 µM (inactive)
O=C(O)c1cc2ccccc2c(/N=N/c2c([N+](=O)[O-])cc([N+](=O)[O-])cc2S(=O)(=O)O)c1O |  | > 100 µM (inactive) | > 100 µM (inactive) |  | > 100 µM (inactive) | > 100 µM (inactive) |  | > 100 µM (inactive) |  | > 100 µM (inactive) | > 100 µM (inactive) | > 100 µM (inactive) | > 100 µM (inactive) | > 100 µM (inactive) | > 100 µM (inactive) |  | > 100 µM (inactive) | > 100 µM (inactive) | > 100 µM (inactive) | > 100 µM (inactive)
O=C(COC(=O)c1cccc2c(=O)c3ccccc3[nH]c12)Nc1ccccc1 | 67.8 µM (inactive) | 50.8 µM (inactive) | 21.7 µM (inactive) |  | > 100 µM (inactive) | 24.2 µM (inactive) |  | 33.3 µM (inactive) | 94.6 µM (inactive) |  | 53.2 µM (inactive) | > 100 µM (inactive) | 43.5 µM (inactive) | > 100 µM (inactive) | > 100 µM (inactive) | 18.9 µM (inactive) | 38.2 µM (inactive) | 22.2 µM (inactive) | 71.4 µM (inactive) | 
COc1ccc(-c2c(C(C)=O)c(C)n(C3OC(COC(C)=O)C(OC(C)=O)C(OC(C)=O)C3OC(C)=O)c(=S)c2C#N)cc1 (centres undefined) | > 100 µM (inactive) | 66.2 µM (inactive) | > 100 µM (inactive) | > 100 µM (inactive) | > 100 µM (inactive) | 21.9 µM (inactive) | > 100 µM (inactive) | > 100 µM (inactive) | 81.5 µM (inactive) | 71 µM (inactive) | > 100 µM (inactive) | > 100 µM (inactive) | > 100 µM (inactive) | > 100 µM (inactive) | 89.9 µM (inactive) | > 100 µM (inactive) | > 100 µM (inactive) | 2.15 µM (inactive) | > 100 µM (inactive) | 
O=[N+]([O-])c1ccc(OCc2nnc(CCCCCCCCc3nnc(COc4ccc([N+](=O)[O-])cc4)o3)o2)cc1 | > 100 µM (inactive) | > 100 µM (inactive) | > 100 µM (inactive) | > 100 µM (inactive) |  |  | > 100 µM (inactive) | > 100 µM (inactive) | > 100 µM (inactive) | > 100 µM (inactive) | > 100 µM (inactive) | 44.5 µM (inactive) | > 100 µM (inactive) | > 100 µM (inactive) | > 100 µM (inactive) |  | > 100 µM (inactive) | > 100 µM (inactive) | 95.9 µM (inactive) | 
COC(=O)C1=C(CCCCO[Si](C)(C)C(C)(C)C)NC(=O)N2[C@H](CCOCc3ccccc3)CC[C@@H]12 | > 100 µM (inactive) | 26.7 µM (inactive) | 27.9 µM (inactive) | 75.2 µM (inactive) | > 100 µM (inactive) |  | 34.4 µM (inactive) | > 100 µM (inactive) | 38 µM (inactive) | 32.7 µM (inactive) | 29.4 µM (inactive) | > 100 µM (inactive) | > 100 µM (inactive) | 30.1 µM (inactive) | 78.3 µM (inactive) |  | 24.7 µM (inactive) | 43.9 µM (inactive) | 23.7 µM (inactive) | 
CC1OC(OC2C(OC(=O)[C@]34CCC(C)(C)C[C@H]3C3=CC[C@@H]5[C@@]6(C)CC[C@H](OC7OC(CO)C(O)C(O)C7OC7OC(CO)C(O)C(O)C7O)C(C)(C)[C@@H]6CC[C@@]5(C)[C@]3(C)CC4)OCC(O)C2O)C(O)C(O)C1OC1OCC(O)C(OC2OCC(O)C(O)C2O)C1O (some centres undefined) | 2.17 µM (inactive) and 2.02 µM (inactive) | 3.01 µM (inactive) and 3.03 µM (inactive) | 1.78 µM (inactive) and 2.43 µM (inactive) | 8.11 µM (inactive) and 7.05 µM (inactive) |  | 9.98 µM (inactive) and 11.1 µM (inactive) |  | 3.57 µM (inactive) and 3.8 µM (inactive) | 15.7 µM (inactive) and 17.7 µM (inactive) | 5.81 µM (inactive) and 3.99 µM (inactive) | 10.7 µM (inactive) and 6.5 µM (inactive) | 6.03 µM (inactive) and 5.07 µM (inactive) | 2.09 µM (inactive) and 2.18 µM (inactive) | 2.15 µM (inactive) | 7.89 µM (inactive) and 7.41 µM (inactive) | 2.19 µM (inactive) and 3.06 µM (inactive) | 2.22 µM (inactive) and 2.33 µM (inactive) | 1.88 µM (inactive) and 1.99 µM (inactive) | 6.76 µM (inactive) and 9.84 µM (inactive) | 13.5 µM (inactive) and 12.9 µM (inactive)
CC(C)=CCC(O)[C@](C)(O)[C@H]1[C@H](O)C[C@@]2(C)[C@@H]3CCc4cc(O)c(OC5OC(CO)C(O)C(O)C5O)cc4C3(C)C(=O)C[C@]12C (some centres undefined) | > 100 µM (inactive) | > 100 µM (inactive) | > 100 µM (inactive) | > 100 µM (inactive) | > 100 µM (inactive) |  | > 100 µM (inactive) | > 100 µM (inactive) | > 100 µM (inactive) | > 100 µM (inactive) | > 100 µM (inactive) | > 100 µM (inactive) | > 100 µM (inactive) | > 100 µM (inactive) | > 100 µM (inactive) | > 100 µM (inactive) | > 100 µM (inactive) | > 100 µM (inactive) | > 100 µM (inactive) | 
CC1(C)CCC[C@]2(C)[C@@H]1CC[C@@]13O[C@@H]1C1=C(CO)C(=O)O[C@]14O[C@@H]4[C@@H]23 | 17.3 µM (inactive) | 7.98 µM (inactive) | 17.7 µM (inactive) | 14.3 µM (inactive) | 17.8 µM (inactive) | 10.8 µM (inactive) | 15.3 µM (inactive) | 19 µM (inactive) | 14.9 µM (inactive) | 14.9 µM (inactive) | 13.2 µM (inactive) | 15 µM (inactive) | 15.6 µM (inactive) | 5.9 µM (inactive) | 14.8 µM (inactive) | 4.61 µM (inactive) | 14 µM (inactive) | 6.05 µM (inactive) | 13.8 µM (inactive) | 
CC1CSc2nc3nc(S)nc-3c(O)n2C1 (centres undefined) | > 100 µM (inactive) | > 100 µM (inactive) | > 100 µM (inactive) | > 100 µM (inactive) | > 100 µM (inactive) | > 100 µM (inactive) | > 100 µM (inactive) | > 100 µM (inactive) | > 100 µM (inactive) | > 100 µM (inactive) | > 100 µM (inactive) | > 100 µM (inactive) | > 100 µM (inactive) | > 100 µM (inactive) | > 100 µM (inactive) |  | > 100 µM (inactive) | > 100 µM (inactive) | > 100 µM (inactive) | 
